From patent US11939307B2, “Phenylmethyl-piperazine derivatives and antiviral uses thereof” (INSTITUTE OF MEDICINAL BIOTECHNOLOGY, CHINESE ACADEMY OF …, priority 2019, dated 2024)

system: HCV; experiment: Assay of anti-HCV activity in HCV-infected Huh7.5 cells (intracellular HCV RNA by one-step quantitative RT-PCR); assay type: cell-based; settings: Hepatitis C virus; compound at 1 μM; Huh7.5 cells infected with HCV; 96 hrs; intracellular HCV RNA vs viral control; read-out: inhibitory activities (inhibitory levels of the compounds against HCV replication)
Method in brief: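 Huh7.5 cells were infected with HCV particles while compounds were added at 1 μM, then incubated 96 h at 37 °C, 5% CO2. Intracellular HCV RNA was quantified by one-step qRT-PCR, and inhibition was calculated relative to the viral control.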

| Compound | inhibition at 1 µM [%] |
| --- | --- |
| CCN(C)CCN(C)c1ccc(C#N)c(CN2CCN(C(C)c3cnccn3)CC2)c1 (stereo not drawn) [Compound 93, 4-[{2-[ethyl(methyl)amino]ethyl}(methyl)amino)-2-({4-[1-(pyrazin-2-yl)ethyl]piperazin-1-yl}methyl)benzonitrile] | 50 to 75 |
| CCN(CC)CCN(C)c1ccc(C(F)(F)F)c(CN2CCN(C(c3ccc(Cl)c(Cl)c3)c3ccc(Cl)c(Cl)c3)CC2)c1 [Compound 94, N1-(3-[{4-[bis(3,4-dichlorophenyl)methyl]piperazin-1-yl}methyl]-4-(trifluoromethyl)phenyl)-N2,N2-diethyl-N1-methylethan-1,2-diamine] | > 75 |
| Cc1cc(C(c2ccc(Cl)c(C)c2)N2CCN(Cc3cc(N(C)CCN(C)C)ccc3C#N)CC2)ccc1Cl [Compound 95, 2-({4-[bis(4-chloro-3-methylphenyl)methyl]piperazin-1-yl}methyl)-4-{[2-(dimethylamino)ethyl](methyl)amino)benzonitrile] | > 75 |
| CN1CCCN(c2ccc(C(F)(F)F)c(CN3CCN(C(c4ccc(Cl)c(Cl)c4)C4CCCCC4)CC3)c2)CC1 (stereo not drawn) [Compound 96, 1-[3-({4-[cyclohexyl(3,4-dichlorophenyl)methyl]piperazin-1-yl}methyl)-4-(trifluoromethyl)phenyl]-4-methyl-1,4-diazepane] | > 75 |
| CN1CCCN(c2ccc(C#N)c(CN3CCN(C(c4ccc(Cl)cc4)C4CCC4)CC3)c2)CC1 (stereo not drawn) [Compound 97, 2-({4-[(4-chlorophenyl)(cyclobutyl)methyl]piperazin-1-yl}methyl)-4-(4-methyl-1,4-diazepan-1-yl)benzonitrile] | > 75 |
| CN1CCN(c2ccc(C#N)c(CN3CCN(C(c4ccc(C(F)(F)F)cc4)c4cnccn4)CC3)c2)CC1 (stereo not drawn) [Compound 99] | 50 to 75 |
| CN1CCCN(c2ccc(C(F)(F)F)c(CN3CCN(C(c4ccc(Oc5ccccc5)cc4)c4ccccn4)CC3)c2)CC1 (stereo not drawn) [Compound 100, 1-methyl-4-[3-({4-[(4-phenoxyphenyl)(pyridin-2-yl)methyl]piperazin-1-yl}methyl)-4-(trifluoromethyl)phenyl]-1,4-diazepane] | 50 to 75 |
| CCN1CCC(N(C)c2ccc(C(F)(F)F)c(CN3CCN(C(c4ccc(Sc5ccccc5)cc4)c4ccc(Sc5ccccc5)cc4)CC3)c2)C1 (stereo not drawn) [Compound 101, N-{3-([4-{bis[4-(phenylthio)phenyl]methyl}piperazin-1-yl]methyl)-4-(trifluoromethyl)phenyl}-1-ethyl-N-methylpyrrolidin-3-amine] | > 75 |
| CSc1ccc(C(c2ccc(SC)cc2)N2CCN(Cc3cc(N(C)CCN(C)C)ccc3C#N)CC2)cc1 [Compound 102, 2-({4-(bis(4-(methylthio)phenyl]methyl}piperazin-1-yl)methyl)-4-{[2-(dimethylamino)ethyl](methyl)amino}benzonitrile] | > 75 |
| CN(CCN1CCCC1)c1ccc(C(F)(F)F)c(CN2CCN(C(c3ccc(C(F)(F)F)cc3)c3ccc(C(F)(F)F)cc3)CC2)c1 [Compound 103, 3-([4-{bis[4-(trifluoromethyl)phenyl]methyl}piperazin-1-yl]methyl)-N-methyl-N-[2-(pyrrolidin-1-yl)ethyl]-4-(trifluoromethyl)aniline] | > 75 |
| CN(C)CCN(C)c1ccc(C#N)c(CN2CCN(C(c3ccc(C#N)cc3)C3CCCC3)CC2)c1 (stereo not drawn) [Compound 104, 2-({4-[(4-cyanophenyl)(cyclopentyl)methyl]piperazin-1-yl}methyl)-4-{[2-(dimethylamino)ethyl](methyl)amino}benzonitrile] | > 75 |
| CC(c1ccc(C#N)cc1)N1CCN(Cc2cc(N(C)CCN(C)C)ccc2C(F)(F)F)CC1 (stereo not drawn) [Compound 105, 4-{1-(4-[5-{[2-(dimethylamino)ethyl](methyl)amino}-2-(trifluoromethyl)benzyl]piperazin-1-yl)ethyl}benzonitrile] | > 75 |
